Key:
Format in all cases: cell-based
NIH3T3 cells [1] = assay: Immunoblotting of cell lysates for GFP after ligand treatment; details: 24 hours; for GFP protein expression by immunoblot, Celecoxib or Valdecoxib: NIH3T3 cells, 1, 3, 10 or 30 μM Celecoxib or Valdecoxib
Description: The protein expression in the presence of ligand was measured by immunoblotting the cell lysates for GFP.
The protein expression in the presence of ligand was measured by immunoblotting cell lysates for GFP.

NIH3T3 cells [2] = assay: Destabilization mutant screening of human CA2 linked to GFP, ligand response by FACS (Valdecoxib, Celecoxib, Acetazolamide)
NIH3T3 cells [3] = assay: as above; details: for stabilization with varying doses of Valdecoxib or Celecoxib: NIH3T3 cells, FACS
Description: To identify destabilizing mutations of human CA2 that are stabilized upon ligand binding to CA2, two rounds of mutant screening were performed, using a lentivirus CA2 mutant library provided by Genscript (China). These methods were used to generate a library of mutant polypeptides using mutagenesis primers and error prone PCR. Lentiviral vectors expressing the template, wild-type human CA2 operably linked to GFP(OT-001986) was also provided by Genscript along with the CA2 mutant library. The library was packaged into lentivirus, transduced into NIH3T3 cells at a multiplicity of infection (MOI) of approximately 0.3 and select stable cell pools were derived by selecting with selection marker puromycin.
To identify cell pools containing destabilizing mutants of CA2 that are stabilizing when CA2 is bound to its corresponding ligand, cells were sorted using FACS. In the initial round, the bottom 15% of population that was GFP negative in the absence of ligand was selected. Cells were expanded and then treated with 10 μM Celecoxib for 24 hours and harvested for cell sorting. The top 11% GFP positive cells which were also responsive to ligand treatment compared to untreated were collected. Celecoxib was removed from the cultures and replaced with DMSO. […] Genomic DNA was isolated and amplified CA2 mutants were reintroduced to the lentiviral vectors where CA2 was operably linked to GFP. The constructs were transduced into NIH3T3 cells with lentivirus vectors for each clone. The cells were treated with 10 μM Valdecoxib or 10 μM Celecoxib for 24 hours and analyzed by FACS. […] In Table 25, the Construct ID (OT-XXXXXX) refers to the construct which includes the referenced CA2 mutant and the Library ID (LibCXXXXXX) refers to the CA2 mutant itself.
The response of NIH3T3 cells to varying doses of Valdecoxib or Celecoxib for 24 hours was measured and analyzed by FACS.
Clones treated with different ligands were compared to examine the behavior of each mutant with the ligands.

[4] = NIH3T3, Acetazolamide 0.03 μM vs DMSO
[5] = NIH3T3, DMSO (reference), Acetazolamide experiment
[6] = NIH3T3, 10 μM Celecoxib vs DMSO
[7] = NIH3T3, 10 μM Valdecoxib vs DMSO
[8] = NIH3T3, Acetazolamide 0.03 μM, 24 hours
[9] = NIH3T3, Acetazolamide 0.1 μM vs DMSO
[10] = NIH3T3, Acetazolamide 0.1 μM, 24 hours
[11] = NIH3T3, Acetazolamide 0.3 μM vs DMSO
[12] = NIH3T3, Acetazolamide 0.3 μM, 24 hours
[13] = NIH3T3, Acetazolamide 1 μM vs DMSO
[14] = NIH3T3, Acetazolamide 1 μM, 24 hours
[15] = NIH3T3, Acetazolamide 3 μM vs DMSO
[16] = NIH3T3, Acetazolamide 3 μM, 24 hours
[17] = NIH3T3, Acetazolamide 10 μM vs DMSO
[18] = NIH3T3, Acetazolamide 10 μM, 24 hours
[19] = NIH3T3, Acetazolamide 30 μM vs DMSO
[20] = NIH3T3, Acetazolamide 30 μM, 24 hours
[21] = NIH3T3, Celecoxib 0 μM, 24 hours
[22] = NIH3T3, Celecoxib 0.03 μM, 24 hours
[23] = NIH3T3, Celecoxib 0.1 μM, 24 hours
[24] = NIH3T3, Celecoxib 0.3 μM, 24 hours
[25] = NIH3T3, Celecoxib 1 μM, 24 hours
[26] = NIH3T3, Celecoxib 3 μM, 24 hours
[27] = NIH3T3, Celecoxib 10 μM, 24 hours
[28] = NIH3T3, Celecoxib 30 μM, 24 hours
[29] = NIH3T3, DMSO, 24 hours (Acetazolamide experiment)
[30] = NIH3T3, Valdecoxib 0 μM, 24 hours
[31] = NIH3T3, Valdecoxib 0.03 μM, 24 hours
[32] = NIH3T3, Valdecoxib 0.1 μM, 24 hours
[33] = NIH3T3, Valdecoxib 0.3 μM, 24 hours
[34] = NIH3T3, Valdecoxib 1 μM, 24 hours
[35] = NIH3T3, Valdecoxib 3 μM, 24 hours
[36] = NIH3T3, Valdecoxib 10 μM, 24 hours
[37] = NIH3T3, Valdecoxib 30 μM, 24 hours

## CA2 (aa 2-260 of WT, R27L, T87I, H122Y, N252D) [LibC000226]
NIH3T3 cells [1]
  GFP protein expression by immunoblot, Celecoxib or Valdecoxib: stabilization of GFP with increasing ligand doses
NIH3T3 cells [2]; [4]
  Fold change: 1.31
NIH3T3 cells [2]; [5]
  Fold change: 1
NIH3T3 cells [3]; NIH3T3, 10 μM Celecoxib
  Median PE: 3816
NIH3T3 cells [3]; [6]
  SR (stabilization ratio): 8.65
NIH3T3 cells [3]; NIH3T3, 10 μM Valdecoxib
  Median PE: 3588
NIH3T3 cells [3]; [7]
  SR (stabilization ratio): 7.93
NIH3T3 cells [3]; [8]
  Median FITC / Median PE: 499
NIH3T3 cells [3]; [9]
  Fold change: 1.85
NIH3T3 cells [3]; [10]
  Median FITC / Median PE: 704
NIH3T3 cells [3]; [11]
  Fold change: 3.58
NIH3T3 cells [3]; [12]
  Median FITC / Median PE: 1360
NIH3T3 cells [3]; [13]
  Fold change: 9.46
NIH3T3 cells [3]; [14]
  Median FITC / Median PE: 3594
NIH3T3 cells [3]; [15]
  Fold change: 17.49
NIH3T3 cells [3]; [16]
  Median FITC / Median PE: 6645
NIH3T3 cells [3]; [17]
  Fold change: 24.46
NIH3T3 cells [3]; [18]
  Median FITC / Median PE: 9295
NIH3T3 cells [3]; [19]
  Fold change: 28.68
NIH3T3 cells [3]; [20]
  Median FITC / Median PE: 10900
NIH3T3 cells [3]; [21]
  Med (median fluorescence intensity): 531
  SR (stabilization ratio): 1
NIH3T3 cells [3]; [22]
  Med (median fluorescence intensity): 711
  SR (stabilization ratio): 1.34
NIH3T3 cells [3]; [23]
  Med (median fluorescence intensity): 661
  SR (stabilization ratio): 1.24
NIH3T3 cells [3]; [24]
  Med (median fluorescence intensity): 750
  SR (stabilization ratio): 1.41
NIH3T3 cells [3]; [25]
  Med (median fluorescence intensity): 1207
  SR (stabilization ratio): 2.27
NIH3T3 cells [3]; [26]
  Med (median fluorescence intensity): 2544
  SR (stabilization ratio): 4.79
NIH3T3 cells [3]; [27]
  Med (median fluorescence intensity): 5227
  SR (stabilization ratio): 9.84
NIH3T3 cells [3]; [28]
  Med (median fluorescence intensity): 7171
  SR (stabilization ratio): 13.5
NIH3T3 cells [3]; NIH3T3, DMSO
  Median PE: 441
NIH3T3 cells [3]; NIH3T3, DMSO (reference)
  SR (stabilization ratio): 1
NIH3T3 cells [3]; [29]
  Median FITC / Median PE: 380
NIH3T3 cells [3]; [30]
  Med (median fluorescence intensity): 531
  SR (stabilization ratio): 1
NIH3T3 cells [3]; [31]
  Med (median fluorescence intensity): 580
  SR (stabilization ratio): 1.09
NIH3T3 cells [3]; [32]
  Med (median fluorescence intensity): 623
  SR (stabilization ratio): 1.17
NIH3T3 cells [3]; [33]
  Med (median fluorescence intensity): 655
  SR (stabilization ratio): 1.23
NIH3T3 cells [3]; [34]
  Med (median fluorescence intensity): 873
  SR (stabilization ratio): 1.64
NIH3T3 cells [3]; [35]
  Med (median fluorescence intensity): 1572
  SR (stabilization ratio): 2.96
NIH3T3 cells [3]; [36]
  Med (median fluorescence intensity): 3902
  SR (stabilization ratio): 7.35
NIH3T3 cells [3]; [37]
  Med (median fluorescence intensity): 6245
  SR (stabilization ratio): 11.76
NIH3T3 cells [3]; 24 hours
  stabilization with varying doses of Valdecoxib or Celecoxib: dose dependent stabilization

## CA2 (aa 2-260 of WT, L197P) [LibC000186]
NIH3T3 cells [1]; NIH3T3 cells, 0.3, 1, 3, 10 or 30 μM Acetazolamide
  GFP protein expression by immunoblot, Acetazolamide: stabilization of GFP with increasing ligand doses
NIH3T3 cells [1]
  GFP protein expression by immunoblot, Celecoxib or Valdecoxib: stabilization of GFP with increasing ligand doses
NIH3T3 cells [2]; [4]
  Fold change: 1.19
NIH3T3 cells [2]; [5]
  Fold change: 1
NIH3T3 cells [3]; NIH3T3, 10 μM Celecoxib
  Median PE: 8156
NIH3T3 cells [3]; [6]
  SR (stabilization ratio): 10
NIH3T3 cells [3]; NIH3T3, 10 μM Valdecoxib
  Median PE: 6570
NIH3T3 cells [3]; [7]
  SR (stabilization ratio): 8.05
NIH3T3 cells [3]; [8]
  Median FITC / Median PE: 872
NIH3T3 cells [3]; [9]
  Fold change: 1.18
NIH3T3 cells [3]; [10]
  Median FITC / Median PE: 867
NIH3T3 cells [3]; [11]
  Fold change: 1.23
NIH3T3 cells [3]; [12]
  Median FITC / Median PE: 903
NIH3T3 cells [3]; [13]
  Fold change: 1.28
NIH3T3 cells [3]; [14]
  Median FITC / Median PE: 936
NIH3T3 cells [3]; [15]
  Fold change: 1.28
NIH3T3 cells [3]; [16]
  Median FITC / Median PE: 943
NIH3T3 cells [3]; NIH3T3, Acetazolamide 10 μM
  MFI, comparative analysis: 1189
NIH3T3 cells [3]; [17]
  Fold change: 1.62
NIH3T3 cells [3]; [18]
  Median FITC / Median PE: 1189
NIH3T3 cells [3]; NIH3T3, Acetazolamide 30 μM
  MFI, comparative analysis: 1827
NIH3T3 cells [3]; [19]
  Fold change: 2.49
NIH3T3 cells [3]; [20]
  Median FITC / Median PE: 1827
NIH3T3 cells [3]; [21]
  Med (median fluorescence intensity): 934
  SR (stabilization ratio): 1
NIH3T3 cells [3]; [22]
  Med (median fluorescence intensity): 1177
  SR (stabilization ratio): 1.26
NIH3T3 cells [3]; [23]
  Med (median fluorescence intensity): 1290
  SR (stabilization ratio): 1.38
NIH3T3 cells [3]; [24]
  Med (median fluorescence intensity): 1470
  SR (stabilization ratio): 1.57
NIH3T3 cells [3]; [25]
  Med (median fluorescence intensity): 2065
  SR (stabilization ratio): 2.21
NIH3T3 cells [3]; [26]
  Med (median fluorescence intensity): 4171
  SR (stabilization ratio): 4.47
NIH3T3 cells [3]; [27]
  Med (median fluorescence intensity): 8202
  SR (stabilization ratio): 8.78
NIH3T3 cells [3]; [28]
  Med (median fluorescence intensity): 10200
  SR (stabilization ratio): 10.92
NIH3T3 cells [3]; NIH3T3, Celecoxib μM (concentration not given)
  MFI, comparative analysis, normalized to parental day 1: 7312.627
NIH3T3 cells [3]; NIH3T3, DMSO
  MFI, comparative analysis: 734
  Median PE: 816
NIH3T3 cells [3]; NIH3T3, DMSO (reference)
  SR (stabilization ratio): 1
NIH3T3 cells [3]; [29]
  Median FITC / Median PE: 734
NIH3T3 cells [3]; [30]
  Med (median fluorescence intensity): 934
  SR (stabilization ratio): 1
NIH3T3 cells [3]; [31]
  Med (median fluorescence intensity): 1223
  SR (stabilization ratio): 1.31
NIH3T3 cells [3]; [32]
  Med (median fluorescence intensity): 1217
  SR (stabilization ratio): 1.3
NIH3T3 cells [3]; [33]
  Med (median fluorescence intensity): 1363
  SR (stabilization ratio): 1.46
NIH3T3 cells [3]; [34]
  Med (median fluorescence intensity): 1711
  SR (stabilization ratio): 1.83
NIH3T3 cells [3]; [35]
  Med (median fluorescence intensity): 3357
  SR (stabilization ratio): 3.59
NIH3T3 cells [3]; [36]
  Med (median fluorescence intensity): 7890
  SR (stabilization ratio): 8.45
NIH3T3 cells [3]; [37]
  Med (median fluorescence intensity): 11800
  SR (stabilization ratio): 12.63
NIH3T3 cells [3]; NIH3T3, Valdecoxib μM (concentration not given)
  MFI, comparative analysis, normalized to parental day 1: 7034.458
NIH3T3 cells [3]; 24 hours
  stabilization with varying doses of Valdecoxib or Celecoxib: dose dependent stabilization
